{"source": "patent US9999611B2", "about": "“SIRT 1 activator including syringaresinol” (AMOREPACIFIC CORPORATION, priority 2011, dated 2018)", "key": {"[1]": {"tested_on": "aged retinal cells (ARPE-19)", "assay": "Mitochondrial biosynthesis promoting effect in aged retinal cells (mitochondrial DNA relative to nuclear DNA, real-time PCR)", "format": "cell-based, human", "conditions": "vs DMSO, FIG. 15", "procedure": "The aging of retinal cells was induced while treating with 50 or 100 μM syringaresinol or with DMSO as a negative control, in substantially the same manner as in Test Example 7. The cells treated with each sample were washed 2 times with cold PBS and genomic DNA (gDNA) was extracted therefrom using the FastPure DNA kit (Tokyo, Japan). For evaluation of mitochondrial biosynthesis, the quantity of the mitochondrial DNA marker cytochrome oxidase subunit II and the nuclear DNA marker cyclophilin A was quantified through real-time PCR using the extracted gDNA and the number of mitochondria was measured by calculating the quantity of mitochondrial DNA relative to the nuclear DNA. PCR reaction and analysis were carried out using the Rotor-Gene 3000 system (Corbett Research, Sydney, Australia)."}, "Human hepatocytes": {"tested_on": "Human hepatocytes", "assay": "Fatty acid oxidation promoting ability (3H2O in medium), hepatocytes", "format": "cell-based", "conditions": "50 μM, vs non-treated group, FIG. 11", "procedure": "Human adipocytes, hepatocytes and myocytes were treated with 50 μM syringaresinol in substantially the same manner as in Test Example 3. The cells were washed with PBS and cultured for a day in a medium for fatty acid oxidation analysis. The medium was recovered and the amount of ^3H2O was measured."}, "ADD1/SREBP1c, ACC, FAS": {"tested_on": "ADD1/SREBP1c, ACC, FAS", "assay": "Expression of fatty acid synthesis-related genes (qRT-PCR)", "format": "cell-based, human", "conditions": "50 μM, vs DMSO control", "procedure": "Human adipocytes, hepatocytes and myocytes were treated with 50 μM syringaresinol and washed with PBS in substantially the same manner as in Test Example 3. RNA was extracted from the cells and cDNA was synthesized therefrom. The change in expression pattern of fatty acid synthesis-related genes such as ADD1/SREBP1c, ACC, FAS, etc. and fatty acid oxidation-related genes such as ACO, CPT1, mCAD, etc. was measured by qRT-PCR."}, "SIRT1 [2]": {"tested_on": "SIRT1", "assay": "SIRT1 expression promoting effect in human PBMCs (qRT-PCR)", "format": "cell-based", "conditions": "human PBMCs, 20, 50 or 100 μM, 24 hours; FIG. 17", "procedure": "The SIRT1 gene expression promoting effect of syringaresinol in human PBMCs was evaluated as follows.\nHuman PBMCs were purchased from Zen-Bio (Research Triangle Park, N.C., USA) and cultured in a 5% CO2 incubator using a PBMC medium (Zen-Bio) until 80% confluency. Then, the cells were treated for 24 hours with syringaresinol dissolved in DMSO to a concentration of 20, 50 or 100 μM. A negative control group was treated with DMSO corresponding to 1/1000 of the volume of the culture medium. The cells treated with each sample were washed with PBS and RNA was extracted therefrom using the TRIzol reagent (Invitrogen). Then, cDNA was synthesized from the extracted RNA (5 μg) using a reverse transcription system (Fermentas, Glen Burnie, Md., USA). The expression pattern of the SIRT1 and GAPDH genes was monitored by qRT-PCR using the synthesized cDNA and predesigned primers and probes. qRT-PCR reaction and analysis were carried out using the Rotor-Gene 3000 system (Corbett Research, Sydney, Australia)."}, "SIRT1 [3]": {"tested_on": "SIRT1", "assay": "SIRT1 expression recovering effect in gingival fibroblasts treated with cigarette smoke condensate (PCR)", "format": "cell-based, human", "conditions": "cigarette smoke condensate 100 μg/mL, syringaresinol 50 or 100 μg/mL, 2 days, FIG. 2", "procedure": "Experiment was conducted to evaluate whether syringaresinol can recover SIRT1 expression that has been decreased due to smoking in gingival fibroblasts.\nGingival fibroblasts were obtained from tissue biopsies of patients having healthy gingiva. The tissue biopsy was put in a 15-mL test tube holding Dulbecco's modified Eagle's medium (DMEM, Gibco Co., USA) and blood and impurities were removed by washing 3 times. Then, the tissue biopsy was transferred onto a 100-mm tissue culture dish holding DMEM containing 10% fetal bovine serum (Gibco Co., USA) and 1% antibiotics (penicillin G 10,000 units/mL, amphotericin B 25 μg/mL, Gibco Co., USA) and finely cut to 1 mm^2 using a No. 15 blade. Then, 5-6 pieces were uniformly distributed on a 60-mm culture dish. After incubation for about 30 minutes in a 5% CO2 incubator at 37° C. and 100% humidity such that the tissue was uniformly attached on the bottom of the culture dish, 3 mL of DMEM containing 10% fetal bovine serum and 1% antibiotics was added. The culture medium was exchanged with 2-3 day intervals until a single layer of cells was formed. […]\nThe gingival fibroblasts subcultured 5-6 times were seeded onto a 24-well plate, with 1×10^4 cells per well. […] The expression pattern of the SIRT1 and GAPDH genes was monitored using the synthesized cDNA and predesigned primers and probes (Applied Biosystems; SIRT1, Hs01009006_m1; GAPDH, Hs99999905_m1). […]"}}}
{"molecule": "COc1cc(C2OCC3C(c4cc(OC)c(O)c(OC)c4)OCC23)cc(OC)c1O", "note": "(centres unmarked) [syringaresinol]", "values": [{"measurement": "increase in mitochondrial biosynthesis (mitochondrial DNA relative to nuclear DNA)", "setting": "[1]; 50 μM", "value": "about 40%"}, {"measurement": "increase in mitochondrial biosynthesis (mitochondrial DNA relative to nuclear DNA)", "setting": "[1]; 100 μM", "value": "~60", "unit": "%"}, {"measurement": "fatty acid oxidation", "setting": "Human hepatocytes", "value": "increased fatty acid oxidation"}, {"measurement": "expression of fatty acid synthesis-inducing genes", "setting": "ADD1/SREBP1c, ACC, FAS; human adipocytes, FIG. 5", "value": "suppressed the expression of fatty acid synthesis-inducing genes"}, {"measurement": "expression of fatty acid synthesis-inducing genes", "setting": "ADD1/SREBP1c, ACC, FAS; human hepatocytes, FIG. 6", "value": "suppressed the expression of fatty acid synthesis-inducing genes"}, {"measurement": "expression of fatty acid synthesis-inducing genes", "setting": "ADD1/SREBP1c, ACC, FAS; human myocytes, FIG. 7", "value": "suppressed the expression of fatty acid synthesis-inducing genes"}, {"measurement": "SIRT1 expression", "setting": "SIRT1 [2]", "value": "increased SIRT1 expression in PBMCs in a concentration-dependent manner"}, {"measurement": "SIRT1 expression", "setting": "SIRT1 [3]", "value": "increased SIRT1 expression in gingival fibroblasts, which had been decreased due to smoking, in a concentration-dependent manner"}]}
